From patent EP3800188A1, “SUBSTITUTED PYRAZOLOPYRIMIDINES AS IRAK4 INHIBITORS” (Bayer AG, priority 2019, dated 2021)

Columns and labels:
[1] = target: T1, human IRAK4 (Homo sapiens, UniProt Q9NWZ3); assay: Human IRAK4 kinase activity inhibition assay (IRAK4 TR-FRET assay); type: biochemical; conditions: 1 mM ATP, GST-human IRAK4, average or median values
T1 construct: GST (N); made in house; host or cells: baculovirus-infected Hi5 (BTI-TN-5B1-4) insect cells
T1 sequence (Q9NWZ3 1-460): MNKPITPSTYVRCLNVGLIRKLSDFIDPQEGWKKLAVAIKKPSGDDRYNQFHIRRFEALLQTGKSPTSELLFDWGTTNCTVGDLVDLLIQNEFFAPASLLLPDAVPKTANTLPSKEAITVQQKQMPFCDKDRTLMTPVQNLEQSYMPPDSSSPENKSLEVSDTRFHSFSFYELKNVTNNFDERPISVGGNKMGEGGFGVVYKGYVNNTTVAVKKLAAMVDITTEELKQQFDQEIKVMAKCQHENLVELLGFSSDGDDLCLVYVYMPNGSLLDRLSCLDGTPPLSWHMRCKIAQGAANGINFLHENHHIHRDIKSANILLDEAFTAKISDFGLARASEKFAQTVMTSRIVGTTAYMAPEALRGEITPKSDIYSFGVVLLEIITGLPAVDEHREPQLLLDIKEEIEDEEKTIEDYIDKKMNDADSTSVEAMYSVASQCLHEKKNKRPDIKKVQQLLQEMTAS
How it was run: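 Signal was the 665/620 nm emission ratio from a europium anti-mouse-IgG, anti-phosphoserine antibody and streptavidin-XL665 complex formed over 1 h at 22°C. It was scaled between no-enzyme (100%) and no-compound (0%) wells. Beforehand, compounds (20 µM down to 0.073 nM, 11 points) sat 15 min with roughly 0.2 nM insect-cell-expressed GST-human IRAK4 before phosphorylation of a biotinylated peptide substrate.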

[2] = target: T2, canine Irak4 (Canis lupus familiaris, UniProt A0A8I3S726); assay: Canine Irak4 kinase assay (TR-FRET); type: biochemical; conditions: 1 mM ATP, His6-tagged canine Irak4, average or median values
T2 sequence (A0A8I3S726 2-459): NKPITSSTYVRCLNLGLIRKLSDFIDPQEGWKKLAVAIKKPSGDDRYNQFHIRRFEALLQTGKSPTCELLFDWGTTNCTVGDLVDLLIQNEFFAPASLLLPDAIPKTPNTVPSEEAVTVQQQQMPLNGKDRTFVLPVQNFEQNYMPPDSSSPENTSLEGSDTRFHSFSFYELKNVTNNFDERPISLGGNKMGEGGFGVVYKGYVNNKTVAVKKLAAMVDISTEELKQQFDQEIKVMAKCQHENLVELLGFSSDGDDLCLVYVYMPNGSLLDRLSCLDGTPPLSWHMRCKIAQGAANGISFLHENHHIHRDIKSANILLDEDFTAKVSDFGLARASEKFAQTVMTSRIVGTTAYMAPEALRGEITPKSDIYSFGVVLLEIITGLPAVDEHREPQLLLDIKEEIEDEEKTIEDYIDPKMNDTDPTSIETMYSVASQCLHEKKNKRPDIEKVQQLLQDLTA

[3] = Metabolic stability in human liver microsomes; conditions: 1 µM compound; for CLblood, human microsomes: hepatic in vivo blood clearance calculated with well stirred liver model, '(stable)' given beside < 0.01; for Fmax, human microsomes: maximal oral bioavailability calculated with well stirred liver model, 0.5 mg/mL protein, '(stable)' given beside 100
Method: The in vitro metabolic stability of test compounds was determined by incubating them at 1 µM in a suspension liver microsomes in 100 mM phosphate buffer, pH7.4 (NaH2PO4 x H2O + Na2HPO4 x 2H2O) and at a protein concentration of 0.5 mg/mL at 37° C. The microsomes were activated by adding a co-factor mix containing 8 mM Glukose-6-Phosphat, 4 mM MgCl2, 0.5 mM NADP and 1 IU/mL G-6-P-Dehydrogenase in phosphate buffer, pH 7.4. The metabolic assay was started shortly afterwards by adding the test compound to the incubation at a final volume of 1 mL. Organic solvent in the incubations was limited to ≤0.01 % dimethylsulfoxide (DMSO) and ≤1% acetonitril. During incubation, the microsomal suspensions were continuously shaken at 580 rpm, and aliquots were taken at 2, 8, 16, 30, 45 and 60 min, to which equal volumes of cold methanol were immediately added. Samples were frozen at -20° C over night, subsequently centrifuged for 15 min at 3000 rpm and the supernatant was analyzed with an Agilent 1200 HPLC-system with LCMS/MS detection.
The half-life of a test compound was determined from the concentration-time plot. From the half-life the intrinsic clearances were calculated. Together with the additional parameters liver blood flow, specific liver weight and microsomal protein content the hepatic in vivo blood clearance (CL) and the maximal oral bioavailability (Fmax) were calculated using the "well stirred" liver model. The following parameter values were used: Liver blood flow - 1.32 L/h/kg (human), 2.1 L/h/kg (dog); specific liver weight - 21 g/kg (human), 39 g/kg (dog); microsomal protein content - 40 mg/g.

[4] = Metabolic stability in dog liver microsomes; type: in vitro ADME; conditions: 1 µM compound; for CLblood, dog microsomes: hepatic in vivo blood clearance calculated with well stirred liver model, '(stable)' given beside < 0.01; for Fmax, dog microsomes: maximal oral bioavailability calculated with well stirred liver model, 0.5 mg/mL protein, '(stable)' given beside 100
Method: From the half-life the intrinsic clearances were calculated.

| Compound | IC50 [1] [nM] | IC50 [2] [nM] | CLblood, human microsomes [3] | Fmax, human microsomes [3] | CLblood, dog microsomes [4] | Fmax, dog microsomes [4] |
| --- | --- | --- | --- | --- | --- | --- |
| CC(C)(O)C1CCN(c2nc(NC3CCS(=O)(=O)C3)nc3c2cnn3-c2cccc(C(F)(F)F)c2)CC1 (single isomer, unassigned; (+)) [Example I-4-2, (+)-2-(1-{6-[(1,1-dioxidotetrahydrothiophen-3-yl)amino]-1-[3-(trifluoromethyl)phenyl]-1H-pyrazolo[3,4-d]pyrimidin-4-yl}piperidin-4-yl)propan-2-ol] | 8.27 | 8.54 | 0.14 L/h/kg | 89% |  |  |
| O=C1C[C@H](Nc2nc(N3CC(N4CCOCC4)C3)c3cnn(-c4cccc(C(F)(F)F)c4)c3n2)CN1 [Example I-1-1, (4S)-4-({4-[3-(morpholin-4-yl)azetidin-1-yl]-1-[3-(trifluoromethyl)phenyl]-1H-pyrazolo-[3,4-d]pyrimidin-6-yl}amino)pyrrolidin-2-one] | 3.04 | 3.19 |  |  |  |  |
| CC(C)(O)C1CCN(c2nc(N[C@@H]3CNC(=O)C3)nc3c2cnn3-c2cccc(C(F)(F)F)c2)CC1 [Example I-2-1, (4S)-4-({4-[4-(2-hydroxypropan-2-yl)piperidin-1-yl]-1-[3-(trifluoromethyl)phenyl]-1H-pyrazolo[3,4-d]pyrimidin-6-yl}amino)pyrrolidin-2-one] | 7.19 | 8.7 | 0.32 L/h/kg | 76% |  |  |
| O[C@H]1C[C@@H](Nc2nc(N3CC(N4CCOCC4)C3)c3cnn(-c4cccc(C(F)(F)F)c4)c3n2)C1 [Example I-72, cis-3-({4-[3-(morpholin-4-yl)azetidin-1-yl]-1-[3-(trifluoromethyl)phenyl]-1H-pyrazolo[3,4-d]pyrimidin-6-yl}amino)cyclobutanol] | 7.31 |  | 0.28 L/h/kg | 79% | 0.10 L/h/kg | 95% |
| CN1CC[C@H](Nc2nc(N3CCC(C(C)(C)O)CC3)c3cnn(-c4cccc(C(F)F)c4)c3n2)C1 [II-4, 2-[1-(1-[3-(difluoromethyl)phenyl]-6-{[(3S)-1-methylpyrrolidin-3-yl]amino}-1H-pyrazolo-[3,4-d]pyrimidin-4-yl)piperidin-4-yl]propan-2-ol] | 3.33 |  | < 0.01 (stable) L/h/kg | 100 (stable) % | < 0.01 (stable) L/h/kg | 100 (stable) % |
| CC(C)(O)C1CCN(c2nc(NC3CCS(=O)(=O)CC3)nc3c2cnn3-c2cccc(C(F)F)c2)CC1 [II-5, 2-(1-{1-[3-(difluoromethyl)phenyl]-6-[(1,1-dioxidotetrahydro-2H-thiopyran-4-yl)amino]-1H-pyrazolo[3,4-d]pyrimidin-4-yl}piperidin-4-yl)propan-2-ol] | 3.45 |  | 0.10 L/h/kg | 93% | 0.24 L/h/kg | 89% |
| CC(C)(O)C1CCN(c2nc(N[C@H]3CCS(=O)(=O)C3)nc3c2cnn3-c2cccc(C(F)F)c2)CC1 [II-6, 2-[1-(1-[3-(difluoromethyl)phenyl]-6-{[(3S)-1,1-dioxidotetrahydrothiophen-3-yl]amino}-1H-pyrazolo[3,4-d]pyrimidin-4-yl)piperidin-4-yl]propan-2-ol] | 5.49 |  | 0.19 L/h/kg | 86% | 0.46 L/h/kg | 78% |
| CC(C)(O)C1CCN(c2nc(NC3CN(S(C)(=O)=O)C3)nc3c2cnn3-c2cccc(C(F)F)c2)CC1 [II-12, 2-[1-(1-[3-(difluoromethyl)phenyl]-6-{[1-(methylsulfonyl)azetidin-3-yl]amino}-1H-pyrazolo[3,4-d]pyrimidin-4-yl)piperidin-4-yl]propan-2-ol] | 2.98 |  | 0.25 L/h/kg | 81% | 0.42 L/h/kg | 80% |
| CC1(N2CCOCC2)CN(c2nc(N[C@H]3C[C@H](S(C)(=O)=O)C3)nc3c2cnn3-c2cccc(C(F)F)c2)C1 [II-21, 1-[3-(difluoromethyl)phenyl]-4-[3-methyl-3-(morpholin-4-yl)azetidin-1-yl]-N-[trans-3-(methylsulfonyl)cyclobutyl]-1H-pyrazolo[3,4-d]pyrimidin-6-amine] | 1.8 |  | 0.07 L/h/kg | 95% |  |  |
| O[C@H]1C[C@@H](Nc2nc(N3CC(N4CCOCC4)C3)c3cnn(-c4cccc(C(F)F)c4)c3n2)C1 [II-24, cis-3-({1-[3-(difluoromethyl)phenyl]-4-[3-(morpholin-4-yl)azetidin-1-yl]-1H-pyrazolo[3,4-d]pyrimidin-6-yl}amino)cyclobutanol] | 5.65 |  | < 0.01 (stable) L/h/kg | 100 (stable) % |  |  |
| O=C1CN(C2CN(c3nc(N[C@H]4C[C@H](O)C4)nc4c3cnn4-c3cccc(C(F)F)c3)C2)CCN1 [II-27, 4-(1-{1-[3-(difluoromethyl)phenyl]-6-[(trans-3-hydroxycyclobutyl)amino]-1H-pyrazolo[3,4-d]pyrimidin-4-yl}azetidin-3-yl)piperazin-2-one] | 4.75 |  | < 0.01 (stable) L/h/kg | 100 (stable) % |  |  |
| CCS(=O)(=O)N1CC(Nc2nc(N3CCC(C(C)(C)O)CC3)c3cnn(-c4cccc(C(F)F)c4)c3n2)C1 [II-31, 2-[1-(1-[3-(difluoromethyl)phenyl]-6-{[1-(ethylsulfonyl)azetidin-3-yl]amino}-1H-pyrazolo[3,4-d]pyrimidin-4-yl)piperidin-4-yl]propan-2-ol] | 9.22 |  | 0.29 L/h/kg | 78% |  |  |
| CS(=O)(=O)[C@H]1C[C@H](Nc2nc(N3CC[C@@H](O)C3)c3cnn(-c4cccc(C(F)F)c4)c3n2)C1 [II-34, (3R)-1-(1-[3-(difluoromethyl)phenyl]-6-{[(1r,3R)-3-(methylsulfonyl)cyclobutyl]amino}-1H-pyrazolo[3,4-d]pyrimidin-4-yl)pyrrolidin-3-ol] | 3.49 |  | 0.07 L/h/kg | 95% |  |  |
| C[C@@]1(O)CCN(c2nc(N[C@H]3C[C@H](S(C)(=O)=O)C3)nc3c2cnn3-c2cccc(C(F)F)c2)C1 [II-35, (3R)-1-(1-[3-(difluoromethyl)phenyl]-6-{[(1r,3R)-3-(methylsulfonyl)cyclobutyl]amino}-1H-pyrazolo[3,4-d]pyrimidin-4-yl)-3-methylpyrrolidin-3-ol] | 6.8 |  | 0.10 L/h/kg | 93% |  |  |
| CC(C)(O)C1CCN(c2nc(N[C@H]3C[C@H](S(C)(=O)=O)C3)nc3c2cnn3-c2cccc(OC(F)F)c2)CC1 [IV-2, 2-[1-(1-[3-(difluoromethoxy)phenyl]-6-{[trans-3-(methylsulfonyl)cyclobutyl]amino}-1H-pyrazolo[3,4-d]pyrimidin-4-yl)piperidin-4-yl]propan-2-ol] | 3.42 |  | 0.32 L/h/kg | 76% | < 0.01 (stable) L/h/kg | 100 (stable) % |
| CS(=O)(=O)N1CC(Nc2nc(N3CCC(C4(N)CC4)CC3)c3cnn(-c4cccc(OC(F)F)c4)c3n2)C1 [IV-3, 4-[4-(1-aminocyclopropyl)piperidin-1-yl]-1-[3-(difluoromethoxy)phenyl]-N-[1-(methylsulfonyl)azetidin-3-yl]-1H-pyrazolo[3,4-d]pyrimidin-6-amine] | 6.61 |  | 0.14 L/h/kg | 89% |  |  |
| CC(C)(O)CC1CN(c2nc(N[C@H]3C[C@H](S(C)(=O)=O)C3)nc3c2cnn3-c2cccc(OC(F)F)c2)C1 [IV-4, 1-[1-(1-[3-(difluoromethoxy)phenyl]-6-{[trans-3-(methylsulfonyl)cyclobutyl]amino}-1H-pyrazolo[3,4-d]pyrimidin-4-yl)azetidin-3-yl]-2-methylpropan-2-ol] | 4.78 |  | 0.55 L/h/kg | 58% |  |  |
